In publication PMC6385310 (Scientific Reports, 2019):
Values joined by “and” are separate entries in the source; they are usually repeats but may differ in a detail not shown here. Identical values can stand only once. Like-named read-outs stand apart in the source and are kept apart here.

What was measured:
[1] = system: nuclear import of VEEV CP-GFP fusion protein; assay: cells; format: cell-based; conditions: for inhibition at 200 µM: Venezuelan equine encephalitis virus, HeLa, 2 h, read-out: inhibition of nuclear import of CP-GFP (FRAP, Fn(rec)max); for inhibition of nuclear import of CP-GFP (FRAP, Fn(rec)max): 200 µM
[2] = system: VEEV CP nuclear accumulation; format: cell-based, Venezuelan equine encephalitis virus
in vitro = conditions: African green monkey
VEEV TC83 = assay: microbe, parasite or virus in culture; format: cell-based; conditions: Venezuelan equine encephalitis virus, Vero, 16 h, read-out: Titre reduction (%)
[3] = system: VEEV TC-83 virus expressing a luciferase reporter gene (TC-83-luc); conditions: read-out: anti-VEEV activity EC50; cited from earlier work
Vero cells [4] = conditions: cited from earlier work
[5] = system: VEEV TC-83 virus expressing a luciferase reporter gene (TC-83-luc); assay: microbe, parasite or virus in culture; format: cell-based, Venezuelan equine encephalitis virus
Vero cells [6] = system: Vero cells
[7] = Venezuelan equine encephalitis virus, Vero, read-out: EC50, concentration yielding 50% inhibition of viral replication
[8] = read-out: EC50, concentration yielding 50% inhibition of viral replication
[9] = Venezuelan equine encephalitis virus, Vero, read-out: EC50, µM (cells printed ND)

SMILES | CC50 (in vitro) [µM] | inhibition at 10 µM (VEEV TC83) [%] | EC50 [5, 7] [µM] | EC50 [5, 8] | SI, selectivity index (CC50/EC50) [5] | also measured
CC#C[C@]1(O)CC[C@H]2[C@@H]3CCC4=CC(=O)CCC4=C3[C@@H](c3ccc(N(C)C)cc3)C[C@@]21C [Compound 1, mifepristone, reference compound] | 165 | 93.7 ± 19.6 | 19.9 ± 2.7 | 19.9 ± 2.7 µM | – | inhibition at 200 µM [1]: ~30%; nuclear accumulation of CP in infected cells (Fn/c) [2]: reduced the nuclear accumulation of CP; EC50 [3]: 20 µM; CC50 (Vero cells [4]): > 100 µM
CC#C[C@]1(O)CC[C@H]2[C@@H]3CCC4=CC(=O)CCC4=C3[C@@H](c3ccc(NC)cc3)C[C@@]21C [Compound 6, Desmethyl-mifepristone, reference compound] | – | – | – | – | – | detectable antiviral (anti-VEEV) activity, in words [5]: eliminated any detectable antiviral activity
C/C=C\[C@]1(O)CC[C@H]2[C@@H]3CCC4=CC(=O)CCC4=C3[C@@H](c3ccc(N(C)C)cc3)C[C@@]21C [Compound 7, Aglepristone, reference compound] | – | – | – | 25.3 µM | – | CC50 (Vero cells [6]): > 100 µM
CN(C)c1ccc([C@H]2C[C@@]3(C)[C@@H](CC[C@@]3(O)C#CC(F)(F)F)[C@@H]3CC[C@@]4(O)CC5(CCC4=C32)OCCO5)cc1 [Compound 8] | > 100 | – | 27.6 | – | 27.6 ± 5.1 >100 >3.6 | –
CN(C)c1ccc([C@H]2C[C@@]3(C)[C@@H](CC[C@@]3(O)C#CC(F)(F)F)[C@@H]3CCC4=CC(=O)CCC4=C32)cc1 [Compound 9, Trifluoromethylmifepristone] | > 100 | – | 17.8 ± 1.7 | – | – | detectable antiviral (anti-VEEV) activity, in words [5]: did not significantly alter the activity of the analogue from 1
CN(C)c1ccc([C@H]2C[C@@]3(C)[C@@H](CC[C@@]3(O)C#CCO)[C@@H]3CCC4=CC(=O)CCC4=C32)cc1 [Compound 11] | > 100 | – | – | – | – | detectable antiviral (anti-VEEV) activity, in words [5]: abolished any detectable antiviral activity; EC50 [5, 9]: > 100 µM
CN(C)c1ccc([C@H]2C[C@@]3(C)[C@@H](CC[C@@]3(O)/C=C\CO)[C@@H]3CCC4=CC(=O)CCC4=C32)cc1 [Compound 13, Lilopristone, reference compound] | > 100 | – | – | – | – | detectable antiviral (anti-VEEV) activity, in words [5]: abolished any detectable antiviral activity; EC50 [5, 9]: > 100 µM
CC(=O)O[C@]1(C(C)=O)CC[C@H]2[C@@H]3CCC4=CC(=O)CCC4=C3[C@@H](c3ccc(N(C)C)cc3)C[C@@]21C [Compound 21, Ulipristal Acetate, reference compound] | > 100 | – | 11.5 | 11.5 ± 7 µM | >8.67 | –
CN(C)c1ccc([C@H]2C[C@@]3(C)[C@@H](CC[C@@]3(O)C#C[Si](C)(C)C)[C@@H]3CC[C@@]4(O)CC5(CCC4=C32)OCCO5)cc1 [Compound 30] | > 100 | 88.4 ± 4.8 | 11.1 ± 1.9 | – | >9.0 | –
CC[Si](C#C[C@]1(O)CC[C@H]2[C@@H]3CC[C@@]4(O)CC5(CCC4=C3[C@@H](c3ccc(N(C)C)cc3)C[C@@]21C)OCCO5)(CC)CC [Compound 31] | > 100 | 93.9 ± 3.2 | 4.7 | – | 4.7 ± 0.5 >100 >21.5 | –
CC(C)[Si](C#C[C@]1(O)CC[C@H]2[C@@H]3CC[C@@]4(O)CC5(CCC4=C3[C@@H](c3ccc(N(C)C)cc3)C[C@@]21C)OCCO5)(C(C)C)C(C)C [Compound 32] | > 100 | 89.7 ± 4.6 | 22 | – | 22.0 ± 6.1 >100 >4.5 | –
CN(C)c1ccc([C@H]2C[C@@]3(C)[C@@H](CC[C@@]3(O)C#C[Si](C)(C)C)[C@@H]3CCC4=CC(=O)CCC4=C32)cc1 [Compound 33] | > 100 | – | < 10 | 8.49 µM and 8.5 µM | – | inhibition at 200 µM [1]: ~30%
CC[Si](C#C[C@]1(O)CC[C@H]2[C@@H]3CCC4=CC(=O)CCC4=C3[C@@H](c3ccc(N(C)C)cc3)C[C@@]21C)(CC)CC [Compound 34] | > 100 | 95.8 ± 1.9 | – | – | – | inhibition at 200 µM [1]: ~30%
CC(C)[Si](C#C[C@]1(O)CC[C@H]2[C@@H]3CCC4=CC(=O)CCC4=C3[C@@H](c3ccc(N(C)C)cc3)C[C@@]21C)(C(C)C)C(C)C [Compound 35] | > 100 | – | 16.3 ± 4.7 | 16.3 µM | – | –
CN(C)c1ccc([C@H]2C[C@@]3(C)[C@@H](CC[C@@]3(O)C#Cc3ccccc3)[C@@H]3CC[C@@]4(O)CC5(CCC4=C32)OCCO5)cc1 [Compound 36] | > 100 | 53.9 ± 18.8 | 7.2 | – | 7.2 ± 2.3 >100 >14.0 | –
COc1ccc(C#C[C@]2(O)CC[C@H]3[C@@H]4CC[C@@]5(O)CC6(CCC5=C4[C@@H](c4ccc(N(C)C)cc4)C[C@@]32C)OCCO6)cc1 [Compound 37] | > 100 | 67.1 ± 12.2 | – | – | – | inhibition of nuclear import of CP-GFP (FRAP, Fn(rec)max) [1]: did not significantly alter CP nuclear import dynamics
CN(C)c1ccc([C@H]2C[C@@]3(C)[C@@H](CC[C@@]3(O)C#Cc3ccccc3)[C@@H]3CCC4=CC(=O)CCC4=C32)cc1 [Compound 38] | > 100 | 69.7 ± 15.4 | 8.46 ± 1.7 | 8.5 µM | >11.82 and 8.5 ± 1.7 >100 >11.8 | –
COc1ccc(C#C[C@]2(O)CC[C@H]3[C@@H]4CCC5=CC(=O)CCC5=C4[C@@H](c4ccc(N(C)C)cc4)C[C@@]32C)cc1 [Compound 39] | > 100 | 47.4 ± 21.4 | < 10 | 5.23 µM and 5.2 µM | – | inhibition of nuclear import of CP-GFP (FRAP, Fn(rec)max) [1]: did not significantly alter CP nuclear import dynamics
C[C@]12C[C@H](c3ccccc3)C3=C4CCC5(C[C@]4(O)CC[C@H]3[C@@H]1CC[C@@]2(O)C#C[Si](C)(C)C)OCCO5 [Compound 45] | > 100 | 95.4 ± 4.1 | 2.6 ± 0.4 | – | >38.7 | –
COc1ccc(C2C[C@@]3(C)[C@@H](CC[C@@]3(O)C#C[Si](C)(C)C)[C@@H]3CCC4=CC(=O)CCC4=C23)cc1 (stereo partly drawn) [Compound 51] | > 100 | – | 22.5 ± 2.4 | – | >4.5 | –
C[C@]12C[C@H](c3ccc(-c4ccccc4)cc3)C3=C4CCC(=O)C=C4CC[C@H]3[C@@H]1CC[C@@]2(O)C#C[Si](C)(C)C [Compound 53] | > 100 | 91.1 ± 5.4 | 5 ± 0.7 | – | >20.1 | –
CN(C)c1cccc([C@H]2C[C@@]3(C)[C@@H](CC[C@@]3(O)C#C[Si](C)(C)C)[C@@H]3CCC4=CC(=O)CCC4=C32)c1 [Compound 54] | > 100 | 94.1 ± 7.1 | 6 ± 1.1 | – | >16.7 | –
